Assay results published in patent publication US4550078A, “Method for the quantitative determination of individual polyamine components in a mixture” (Amano Seiyaku Kabushiki Kaisha, priority 1982, dated 1985).
Like-named read-outs stand apart in the source and are kept apart here.

Key:
[1] = tested on: polyamine oxidase PC-3; test: Enzymatic oxidative decomposition by polyamine oxidase PC-3, colorimetric determination of hydrogen peroxide; assay type: biochemical; conditions: for Activity of the enzyme on the substrate: N8-acetylspermidine only if the concentration of the enzyme is relatively high; for H2O2 formed: substrates marked * only with a relatively high concentration of the enzyme, -- = no activity; for hydrogen peroxide produced per mole of the substrate / time to completion of the reaction: pH 5.5, 35° C., about 0.05 unit of enzyme (about 15 units for N8-acetylspermidine)
[2] = tested on: polyamine oxidase PC-3 followed by acetylputrescine oxidase; test: Two-step reaction: polyamine oxidase PC-3, then acetylputrescine oxidase; assay type: biochemical
[3] = target: T1, putrescine oxidase (Kocuria rosea, UniProt P40974); conditions: cited from earlier work
T1 sequence (P40974 1-478): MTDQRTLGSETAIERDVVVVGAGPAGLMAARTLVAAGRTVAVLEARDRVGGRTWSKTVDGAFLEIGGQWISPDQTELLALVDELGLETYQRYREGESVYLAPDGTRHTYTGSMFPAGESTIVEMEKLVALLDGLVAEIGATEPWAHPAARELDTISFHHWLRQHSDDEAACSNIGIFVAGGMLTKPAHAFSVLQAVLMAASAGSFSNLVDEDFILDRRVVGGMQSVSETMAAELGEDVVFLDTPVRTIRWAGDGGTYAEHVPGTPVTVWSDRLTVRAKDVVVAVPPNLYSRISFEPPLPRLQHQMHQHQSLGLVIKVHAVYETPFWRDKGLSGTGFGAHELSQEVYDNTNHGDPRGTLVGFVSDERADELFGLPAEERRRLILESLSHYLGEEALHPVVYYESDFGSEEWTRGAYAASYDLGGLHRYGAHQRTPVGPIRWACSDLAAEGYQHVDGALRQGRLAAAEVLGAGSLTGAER

[4] = tested on: polyamine oxidase PC-3; conditions: cited from earlier work
[5] = tested on: polyamine oxidase AT-1; test: Enzymatic oxidative decomposition by polyamine oxidase AT-1, colorimetric determination of hydrogen peroxide; assay type: biochemical; conditions: for putrescine formed / H2O2 formed: Table 1, substrates marked * only with a relatively high concentration of the enzyme; for H2O2 formed: -- = no activity; for hydrogen peroxide produced per mole of the substrate / time to completion of the reaction: pH 6.5, 35° C., 0.05 unit of enzyme (2 units for acetylspermine); for Activity of the enzyme on the substrate: spermine and spermidine at low enzyme concentration, acetylspermine and N1-acetylspermidine when the concentration of the enzyme is increased
[6] = tested on: polyamine oxidase AT-1 followed by putrescine oxidase; test: Two-step reaction: polyamine oxidase AT-1, then putrescine oxidase; assay type: biochemical; conditions: for absorbance after the first step / increment of absorbance in the second step / absorbance after the second step: 505 nm; for absorbance after the first step: AT-1 0.05 unit (about 5 units for acetylspermine and N1-acetylspermidine), 0.5 ml of 400 μM substrate in 2.5 ml; for increment of absorbance in the second step: after addition of putrescine oxidase; for absorbance after the second step: putrescine oxidase 0.5 unit, pH 8-9, 5 minutes; for hydrogen peroxide produced per mole of the substrate in the first step: polyamine oxidase AT-1; for hydrogen peroxide produced in the second step: putrescine oxidase acting on the putrescine produced in the first step
[7] = tested on: polyamine oxidase PC-3 followed by putrescine oxidase; test: Two-step reaction: polyamine oxidase PC-3, then putrescine oxidase; assay type: biochemical; conditions: for absorbance after the first step / increment of absorbance in the second step / absorbance after the second step: 505 nm; for absorbance after the first step: PC-3 about 0.05 unit, acetate buffer pH 5.0; for increment of absorbance in the second step: after addition of putrescine oxidase; for absorbance after the second step: putrescine oxidase about 0.5 unit, pH 8-8.5, 5 minutes; for hydrogen peroxide produced per mole of the substrate in the first step: polyamine oxidase PC-3; for hydrogen peroxide produced per mole of the substrate in the second step: putrescine oxidase
[8] = tested on: polyamine oxidase AT-1; conditions: cited from earlier work
[9] = target: T1, putrescine oxidase; test: Enzymatic oxidative decomposition by putrescine oxidase, colorimetric determination of hydrogen peroxide; assay type: biochemical; conditions: for H2O2 formed: Table 1, -- = no activity; for hydrogen peroxide produced per mole of the substrate / time to completion of the reaction: borate buffer pH 8.5, 35° C., about 0.5 unit of enzyme

For `CC(=O)NCCCCNCCCN` [N^8 -acetylspermidine], the “Activity of the enzyme on the substrate” value [1] was “active”, the acetylputrescine formed ([1]; Table 1, relatively high concentration of the enzyme) was 1 moles per mole of the substrat and the H2O2 formed ([1]; Table 1) was 1 moles per mole of the substrat. The “hydrogen peroxide produced per mole of the substrate” value [1] was 1 mol, the “time to completion of the reaction” value [1] was ≤ 10 min and the “absorbance after the first step” value ([2]; 505 nm, PC-3 about 15 units, pH 5.5, 0.5 ml of 400 μM substrate in 2.5 ml) was 0.500. The “absorbance after the second step” value ([2]; 505 nm, acetylputrescine oxidase about 0.5 unit, pH about 7.5, about 10 minutes) was 1.000, the “increment of absorbance in the second step” value (“increment of absorbance” below) ([2]; 505 nm, after addition of acetylputrescine oxidase) was 0.500 and the “hydrogen peroxide produced per mole of the substrate in the second step” value ([2]; acetylputrescine oxidase) was 1 mol. For the same compound, the “hydrogen peroxide produced per mole of the substrate in the first step” value ([2]; polyamine oxidase PC-3) was 1 mol.
For `NCCCN` [1,3-diaminopropane], the Substrate specificity [3] is given as “inactive”.
For `O=C(O)c1cc[c]([Hg][Cl])cc1` [PCMB], the Inhibitors ([4]; spermine as the substrate) is listed as “inhibition”.
With `NCCCNCCCCNCCCN` [spermine] the “absorbance at completion of the reaction” value ([5]; 505 nm, 0.5 ml of 400 μM substrate in 2.5 ml, pH 6.5, 35° C., 0.05 unit of enzyme) was 1.00, the putrescine formed [5] was 1 moles per mole of the substrat and the H2O2 formed [5] was 2 moles per mole of the substrat. The “hydrogen peroxide produced per mole of the substrate” value [5] was 2 mol, the “time to completion of the reaction” value [5] was ≤ 5 min and the “Activity of the enzyme on the substrate” value [5] was “active”. For the same compound, the “Activity of the enzyme on the substrate” value [1] was “active”, the putrescine formed ([1]; Table 1) was 1 moles per mole of the substrat and the H2O2 formed ([1]; Table 1) was 2 moles per mole of the substrat. The “hydrogen peroxide produced per mole of the substrate” value [1] was 2 mol, the “time to completion of the reaction” value [1] was ≤ 5 min and the “absorbance after the first step” value [6] was 1.00. For the same compound, the “increment of absorbance” value [6] was 0.50, the “absorbance after the second step” value [6] was 1.50 and the “hydrogen peroxide produced per mole of the substrate in the first step” value [6] was 2 mol. The “hydrogen peroxide produced in the second step” value [6] was 1 mol, the “absorbance after the first step” value [7] was 1.00 and the “increment of absorbance” value [7] was 0.50. For the same compound, the “absorbance after the second step” value [7] was 1.50, the “hydrogen peroxide produced per mole of the substrate in the first step” value [7] was 2 mol and the “hydrogen peroxide produced per mole of the substrate in the second step” value [7] was 1 mol. For the same compound, the “Enzymatic activity: products per mole of the substrate” value (“Enzymatic activity: products per mole” for short) [8] was 1 mole of putrescine and each 2 moles of 3-aminopropanal and hydrogen peroxide, the Substrate specificity [8] was “active” and the “Enzymatic activity: products per mole” value [4] was 1 mole of putrescine and each 2 moles of 3-aminopropanal and hydrogen peroxide. The Substrate specificity [4] was “active” and the Substrate specificity [3] was “inactive”.
In the case of `O=C(O)CI` [monoiodoacetic acid], the Inhibitors [4] is listed as “inhibition”.
For `NCCCCN` [putrescine], the H2O2 formed [9] was 1 moles per mole of the substrat, the “hydrogen peroxide produced per mole of the substrate” value [9] was 1 mol and the “time to completion of the reaction” value [9] was ≤ 5 min. The “Enzymatic activity: products per mole” value [3] was “each 1 mole of 4-aminobutanal, hydrogen peroxide and ammonia” and the Substrate specificity [3] was “active”.
In the case of `NCCCCNCCCN` [spermidine], the putrescine formed [5] is reported as 1 moles per mole of the substrat, the H2O2 formed [5] is reported as 1 moles per mole of the substrat and the “hydrogen peroxide produced per mole of the substrate” value [5] is reported as 1 mol. The “time to completion of the reaction” value [5] was ≤ 5 min, the “Activity of the enzyme on the substrate” value [5] was “active” and the “Activity of the enzyme on the substrate” value [1] was “active”. The putrescine formed ([1]; Table 1) was 1 moles per mole of the substrat, the H2O2 formed ([1]; Table 1) was 1 moles per mole of the substrat and the “hydrogen peroxide produced per mole of the substrate” value [1] was 1 mol. For the same compound, the “time to completion of the reaction” value [1] was ≤ 10 min, the H2O2 formed [9] was 1 moles per mole of the substrat and the “hydrogen peroxide produced per mole of the substrate” value [9] was 1 mol. The “time to completion of the reaction” value [9] was ≤ 10 min, the “absorbance after the first step” value [6] was 0.50 and the “increment of absorbance” value [6] was 0.50. The “absorbance after the second step” value [6] was 1.00, the “hydrogen peroxide produced per mole of the substrate in the first step” value [6] was 1 mol and the “hydrogen peroxide produced in the second step” value [6] was 1 mol. The “absorbance after the first step” value [7] was 0.50, the “increment of absorbance” value [7] was 0.50 and the “absorbance after the second step” value [7] was 1.00. For the same compound, the “hydrogen peroxide produced per mole of the substrate in the first step” value [7] was 1 mol, the “hydrogen peroxide produced per mole of the substrate in the second step” value [7] was 1 mol and the Substrate specificity ([8]; oxidation with formation of hydrogen peroxide) was “active”. For the same compound, the “Enzymatic activity: products per mole” value ([8]; polyamine oxidase AT-1) was “each 1 mole of putrescine, 3-aminopropanal and hydrogen peroxide”, the “Enzymatic activity: products per mole” value ([4]; polyamine oxidase PC-3) was “each 1 mole of putrescine, 3-aminopropanaland hydrogen peroxide” and the Substrate specificity ([4]; polyamine oxidase PC-3) was “active”. The “Enzymatic activity: products per mole” value [3] was “each 1 mole of 1,3-diaminopropane, 4-aminobutanal and hydrogen peroxide” and the Substrate specificity [3] was “active”.
In the case of silver, the Inhibitors ([8]; polyamine oxidase AT-1) is listed as “strong inhibition”, the Inhibitors ([4]; spermidine as the substrate) is listed as “inhibition” and the Inhibitors ([4]; spermine as the substrate) is listed as “inhibition”.
